Data published in US20240308998A1, “PYRROLOPYRIDONE DERIVATIVES USEFUL IN THE TREATMENT OF CANCER” (Tay Therapeutics Limited, priority 2021, published 2024).
Where a name gives a salt, the structure may show the parent alone.

Tests used:
BRD4 BD1 = biological target: T1, BRD4 BD1 (Homo sapiens, UniProt O60885); assay: NanoBRET bromodomain assay, BRD4 BD1; format: cell-based; conditions: HEK293 cells transfected with NanoLuc-BRD4-BD1
T1 construct: HEK293 cells were transfected using NanoLuc-BRD4-BD1 or NanoLuc-BRD4-BD2 fusion vectors; host or cells: HEK293
Experimental: (§1) HEK293 cells were transfected using NanoLuc-BRD4-BD1 or NanoLuc-BRD4-BD2 fusion vectors and incubated at 37° C. in an atmosphere of 5% CO2 for 20-24 hours. The transfected cells were then dispensed into 96-well plates using 90 μl cell suspension per well containing 2×10^5 cells/ml in Opti-MEM and 1x final concentration of tracer. 90 μl per well of cell suspension without tracer was also dispensed into at least 3 wells as “No tracer control samples” for background correction. Serially diluted test compounds were prepared at 1000× concentration in DMSO and further diluted to 10× concentration in Opti-MEM. 10 μl per well of the serially diluted 10× test compound was added to the 96-well plates containing cells with 1x tracer. Plates were then incubated at 37° C.+5% C02 incubator for 2 hours. Immediately prior to BRET measurements, a 3x solution consisting of 1:166 dilution of Nano-Glo® Substrate plus a 1:500 dilution of Extracellular NanoLuc Inhibitor in Opti-MEM was prepared and 50 μl per well was added to the cells. Donor emission (450 nm) and acceptor emission (610 nm) were measured using PHERAstar (BMG LabTech). For data analysis, the raw BRET ratio was generated and converted to milliBRET units with background correction using the formula: [(Acceptorsample/Donorsample)−(Acceptorno tracer control/Donorno tracer control)]×1000. The mBU data was plotted as a function of compound concentration and IC50s for BRET assay were determined by nonlinear regression analysis of concentration response curves using the GraphPad Prism software.

BRD4 BD2 = biological target: T2, BRD4 BD2 (Homo sapiens, UniProt O60885); assay: NanoBRET bromodomain assay, BRD4 BD2; format: cell-based; conditions: for Fold selectivity BRD4 BD1/BD2: IC50 BD1/IC50 BD2; for IC50: NanoBRET, HEK293 cells transfected with NanoLuc-BRD4-BD2
T2 construct: HEK293 cells were transfected using NanoLuc-BRD4-BD1 or NanoLuc-BRD4-BD2 fusion vectors; host or cells: HEK293
Experimental: as §1
Fold Selectivity Calculated (IC50 BD1/IC50 BD2).

[1] = Balb/c mouse pharmacokinetics after oral (PO) dosing; format: in vivo; conditions: male, plasma
Experimental: Compounds were formulated in 5% DMSO, 40% PEG-400, 55% Milli-Q water at a concentration of 0.5 mg/mL for 5 mg/kg and 3 mg/mL for 30 mg/kg PO dosing. […] Blood was sampled at various timepoints and plasma isolated. 10 μL of plasma with 5 μL of blank Balb/c mouse plasma were added to 200 μL of acetonitrile containing IS mixture. The samples were vortexed for 30 s. After centrifugation at 4 degree Celsius, 3900 rpm for 15 min, the supernatant was diluted 3 times with water. 20 μL of diluted supernatant was injected into the LC/MS/MS system for quantitative analysis and concentration of analyte determined by comparison with matrix matched standard curve. WinNonlin (Phoenix™, version 8.3) or other similar software was used for pharmacokinetic calculations.

[2] = Intrinsic clearance in rat liver microsomes; format: in vitro ADME; conditions: pH 7.4, NADPH, read-out: Rat Microsomal Stability T½
Experimental: A 50 mM stock solution (in DMSO) was prepared for the compound. From the stock solution, a working solution of 0.5 mM was prepared by diluting the compound in DMSO. This concentration of working solution was prepared considering a final concentration of 1 uM with 0.1% DMSO. The compound (1 uL of working solution) was spiked in PBS with pH 7.4 (22 uL) at a concentration of 1 uM. Subsequently, 110 uL of 10 mM NADPH was added (as a co-factor). The sample was incubated at 37° C. for 15 min. Following this, pre-warmed rat liver microsomes (27.5 uL; final protein conc. 0.5 mg/mL) were added. The samples were then incubated at 37° C. Aliquots of samples were withdrawn at 0, 5, 15, 30, 45 and 60 min. The reaction was stopped by using chilled acetonitrile containing internal standard. The samples were centrifuged and the supernatants analysed by LC-MS/MS. The percent compound remaining at each time point was calculated with respect to that of the 0 min sample. The data were then analysed to calculate half-life. Note that control samples were run without NADPH and blank samples were prepared using DMSO without the test Compound.

IC50 (BRD4 BD1)	Fold selectivity BRD4 BD1/BD2 (BRD4 BD2)	IC50 (BRD4 BD2)	Cmax ([1]; 30 mg/kg, Individual)	bioavailability ([1]; 30 mg/kg, Individual)	Cmax ([1]; 5 mg/kg, Casette)	bioavailability ([1]; 5 mg/kg, Casette)	half-life at 1 uM [2]	Structure (SMILES)
> 1000 nM	xxx (Fold >200)	≤ 50 nM	5460 ng/mL	100%				Cc1cc(-c2cc3c(-c4cc(=O)n(C5CC5)cc4Oc4c(C)cccc4C)cn(C)c(=O)c3[nH]2)cc(C)n1 [Example 59, 1-cyclopropyl-5-(2,6-dimethylphenoxy)-4-[2-(2,6-dimethylpyridin-4-yl)-6-methyl-7-oxo-1H-pyrrolo[2,3-c]pyridin-4-yl]pyridin-2-one]
50 to 500 nM	xxx (Fold >200)	≤ 50 nM			1290 ng/mL	88.7%		Cc1cc(-c2cc3c(-c4cc(=O)n(C)cc4-c4ccccc4)cn(C)c(=O)c3[nH]2)cc(C)n1 [Example 62, 4-[2-(2,6-dimethylpyridin-4-yl)-6-methyl-7-oxo-1H-pyrrolo[2,3-c]pyridin-4-yl]-1-methyl-5-phenylpyridin-2-one]
> 1000 nM	xx (Fold >50 and ≤200)	50 to 200 nM					> 1 h	Cc1cccc(C)c1Oc1cn(C)c(=O)cc1-c1cn(C)c(=O)c2[nH]c(-c3ccccc3)cc12 [Example 8, 4-(5-(2,6-dimethylphenoxy)-1-methyl-2-oxo-1,2-dihydropyridin-4-yl)-6-methyl-2-phenyl-1,6-dihydro-7H-pyrrolo[2,3-c] pyridin-7-one]
> 1000 nM	— (Fold ≥0 and ≤2)	> 1000 nM					> 1 h	Cc1cccc(C)c1Oc1cn(C)c(=O)cc1-c1cn(C)c(=O)c2[nH]c(-c3ccc(C(=O)O)cc3)cc12 [Example 35, 4-(4-(5-(2,6-dimethylphenoxy)-1-methyl-2-oxo-1,2-dihydropyridin-4-yl)-6-methyl-7-oxo-6,7-dihydro-1H-pyrrolo[2,3-c]pyridin-2-yl) benzoic acid]
> 1000 nM	x (Fold >2 and ≤50)	> 1000 nM					> 1 h	Cc1cccc(C)c1Oc1cn(C)c(=O)cc1-c1cn(C)c(=O)c2[nH]c(-c3cnnn3C)cc12 [Example 33, 4-(5-(2,6-dimethylphenoxy)-1-methyl-2-oxo-1,2-dihydropyridin-4-yl)-6-methyl-2-(1-methyl-1H-1,2,3-triazol-5-yl)-1,6-dihydro-7H-pyrrolo[2,3-c] pyridin-7-one]
> 1000 nM	xxx (Fold >200)	≤ 50 nM					0.733 h	Cc1cccc(C)c1Oc1cn(C)c(=O)cc1-c1cn(C)c(=O)c2[nH]c(-c3ccncc3)cc12 [Example 10, 4-(5-(2,6-dimethylphenoxy)-1-methyl-2-oxo-1,2-dihydropyridin-4-yl)-6-methyl-2-(pyridin-4-yl)-1,6-dihydro-7H-pyrrolo[2,3-c] pyridin-7-one]
> 1000 nM	xxx (Fold >200)	≤ 50 nM			293 ng/mL	73%		Cc1cccc(C)c1Oc1cn(C)c(=O)cc1-c1cn(C)c(=O)c2[nH]c(-c3cccc(F)c3F)cc12 [Example 50, 4-[2-(2,3-difluorophenyl)-6-methyl-7-oxo-1H-pyrrolo[2,3-c]pyridin-4-yl]-5-(2,6-dimethylphenoxy)-1-methylpyridin-2-one]
> 1000 nM	x (Fold >2 and ≤50)	200 to 1000 nM					> 1 h	Cc1ccc(C)c(-c2cc3c(-c4cc(=O)n(C)cc4Oc4c(C)cccc4C)cn(C)c(=O)c3[nH]2)c1 [Example 19, 4-(5-(2,6-dimethylphenoxy)-1-methyl-2-oxo-1,2-dihydropyridin-4-yl)-2-(2,5-dimethylphenyl)-6-methyl-1,6-dihydro-7H-pyrrolo[2,3-c] pyridin-7-one]
> 1000 nM	xxx (Fold >200)	≤ 50 nM			1590 ng/mL	86.5%		Cn1cc(-c2ccccc2)c(-c2cn(C)c(=O)c3[nH]c(-c4ccccc4)cc23)cc1=O [Example 63, 1-methyl-4-{6-methyl-7-oxo-2-phenyl-1H-pyrrolo[2,3-c]pyridin-4-yl}-5-phenylpyridin-2-one]
> 1000 nM	xxx (Fold >200)	≤ 50 nM					> 1 h	Cc1cccc(C)c1Oc1cn(C)c(=O)cc1-c1cn(C)c(=O)c2[nH]c(-c3ccc(F)cc3)cc12 [Example 25, 4-(5-(2,6-dimethylphenoxy)-1-methyl-2-oxo-1,2-dihydropyridin-4-yl)-2-(4-fluorophenyl)-6-methyl-1,6-dihydro-7H-pyrrolo[2,3-c] pyridin-7-one]
> 1000 nM	x (Fold >2 and ≤50)	200 to 1000 nM					> 1 h	Cc1ccc(-c2cc3c(-c4cc(=O)n(C)cc4Oc4c(C)cccc4C)cn(C)c(=O)c3[nH]2)cc1 [Example 23, 4-(5-(2,6-dimethylphenoxy)-1-methyl-2-oxo-1,2-dihydropyridin-4-yl)-6-methyl-2-(p-tolyl)-1,6-dihydro-7H-pyrrolo[2,3-c] pyridin-7-one]
> 1000 nM	x (Fold >2 and ≤50)	200 to 1000 nM					> 1 h	Cc1cccc(C)c1Oc1cn(C)c(=O)cc1-c1cn(C)c(=O)c2[nH]c(-c3cccnc3)cc12 [Example 9, 4-(5-(2,6-dimethylphenoxy)-1-methyl-2-oxo-1,2-dihydropyridin-4-yl)-6-methyl-2-(pyridin-3-yi)-1,6-dihydro-7H-pyrrolo[2,3-c] pyridin-7-one.TFA]
> 1000 nM	xx (Fold >50 and ≤200)	50 to 200 nM					> 1 h	Cc1cccc(C)c1Oc1cn(C)c(=O)cc1-c1cn(C)c(=O)c2[nH]c(-c3cncnc3)cc12 [Example 22, 4-(5-(2,6-dimethylphenoxy)-1-methyl-2-oxo-1,2-dihydropyridin-4-yl)-6-methyl-2-(pyrimidin-5-yl)-1,6-dihydro-7H-pyrrolo[2,3-c] pyridin-7-one]
> 1000 nM	xx (Fold >50 and ≤200)	50 to 200 nM					> 1 h	Cc1ccc(F)cc1-c1cc2c(-c3cc(=O)n(C)cc3Oc3c(C)cccc3C)cn(C)c(=O)c2[nH]1 [Example 18, 4-(5-(2,6-dimethylphenoxy)-1-methyl-2-oxo-1,2-dihydropyridin-4-yl)-2-(5-fluoro-2-methylphenyl)-6-methyl-1,6-dihydro-7H-pyrrolo[2,3-c] pyridin-7-one]
> 1000 nM	xx (Fold >50 and ≤200)	50 to 200 nM					> 1 h	Cc1cccc(C)c1Oc1cn(C)c(=O)cc1-c1cn(C)c(=O)c2[nH]c(-c3cnn[nH]3)cc12 [Example 30, 4-(5-(2,6-dimethylphenoxy)-1-methyl-2-oxo-1,2-dihydropyridin-4-yl)-6-methyl-2-(1H-1,2,3-triazol-5-yl)-1,6-dihydro-7H-pyrrolo[2,3-c] pyridin-7-one]
> 1000 nM	xx (Fold >50 and ≤200)	50 to 200 nM					> 1 h	Cc1cccc(C)c1Oc1cn(C)c(=O)cc1-c1cn(C)c(=O)c2[nH]c(-c3ccc(C(F)(F)F)cc3)cc12 [Example 28, 4-(5-(2,6-dimethylphenoxy)-1-methyl-2-oxo-1,2-dihydropyridin-4-yl)-6-methyl-2-(4-(trifluoromethyl)phenyl)-1,6-dihydro-7H-pyrrolo[2,3-c] pyridin-7-one]
